Assay results: US10882869B2, “Condensed heterocyclic compounds and pesticides” (NISSAN CHEMICAL CORPORATION, priority 2015, dated 2021)

Tests used:
Format in all cases: in vivo
Myzus persicae = assay: Insecticidal test on Myzus persicae (cabbage leaf spray); settings: 144 h, 500 ppm solution sprayed (2.5 mg/cm^2), apterous adults on cabbage leaves, 6 days after, 25° C.
Experimental: Wet absorbent cotton was laid on glass dishes having an inner diameter of 3 cm, and covered with leaves of cabbage cut into circles of the same diameter, and 4 apterous adults of Myzus persicae were released. […] The solutions were sprayed from a rotary spray tower (2.5 mg/cm^2), and the dishes were covered with lids and placed in an incubator at 25° C. 6 Days after, dead insects were counted, and the mortality was calculated by using the same equation as in Test Example 1. The test was carried out in duplicate.

Spodoptera litura = assay: Insecticidal test on Spodoptera litura (cabbage leaves soaked); settings: 144 h, 500 ppm solution, 3rd-instar larvae, 6 days after, 25° C.
Experimental: (§1) Leaves of cabbage were soaked in the solutions for about 10 seconds. After the soaking, the leaves were dried in air and placed in dishes. In each dish, five 3rd-instar larvae of Spodoptera litura were released, and the dishes were covered with lids and placed in an incubator at 25° C. 6 Days after, dead insects in the dishes were counted, and the mortality was calculated by using the same equation as in Test Example 1. The test was carried out in duplicate.

Plutella xylostella = assay: Insecticidal test on Plutella xylostella (cabbage leaves soaked); settings: 144 h, 500 ppm solution, 3rd-instar larvae, 6 days after, 25° C.
Experimental: as §1, with “Plutella xylostella” for “Spodoptera litura”

Ctenocephalides felis = assay: Test on the effect on Ctenocephalides felis (thin film in glass container); settings: 96 h, application dose 10 μg/cm^2, adults, 4 days after release, 25° C.
Experimental: 350 μl of the solutions were applied to the bottoms and the side walls of glass containers with an inner wall surface area of 35 cm^2, and acetone was volatilized to prepare thin films of the compounds on the inner walls of the glass containers. Since the inner wall surface area of each glass container was 35 cm^2, the application dose was 10 μg/cm^2.
To each glass container, five adults (male and female) of Ctenocephalides felis were released, and the containers were covered with lids and placed in an incubator at 25° C. 4 Days after the release of the fleas, dead fleas were counted, and the mortality was calculated by using the same equation as in Test Example 1.

Nilaparvata lugens [1] = assay: Insecticidal test on Nilaparvata lugens (rice sheaths soaked); settings: 144 h, 500 ppm solution, 3rd-instar larvae, 6 days after, 25° C.
Experimental: Rice sheaths were soaked in the solutions for about 10 seconds. After the soaking, the rice sheaths were dried in air and put in test tubes. In each tube, five 3rd-instar larvae of Nilaparvata lugens were released, and the tubes were capped with sponge and placed in an incubator at 25° C. 6 Days after, dead insects in the test tubes were counted, and the mortality (%) (the number of dead insects÷the number of released insects×100) was calculated. The test was carried out in duplicate.

Nilaparvata lugens [2] = assay: Systemic insecticidal test on Nilaparvata lugens (rice seedling root dip); settings: 20 ppm solution, rice seedling roots dipped 7 days, 3rd-instar larvae, 6 days after release, 25° C.
Experimental: 7 Days after, the rice seedlings were picked and put in test tubes, and in each tube, five 3rd-instar larvae of Nilaparvata lugens were released, and the tubes were capped with sponge and placed in an incubator at 25° C. 6 Days after the release of the insects, dead insects were counted, and the mortality (%) (the number of dead insects÷the number of released insects×100) was calculated. The test was carried out in duplicate.

SMILES | mortality at 500 ppm (Myzus persicae) [%] | mortality at 500 ppm (Spodoptera litura) [%] | mortality at 500 ppm (Plutella xylostella) [%] | mortality at 10 µg/cm2 (Ctenocephalides felis) [%] | mortality at 500 ppm (Nilaparvata lugens [1]) [%] | mortality at 20 ppm (Nilaparvata lugens [2]) [%]
CCS(=O)(=O)c1c(-c2cn3cc(C(F)(F)F)ncc3n2)nc2ccc(C(F)(F)F)cn12 [1-6-002a, 2-[3-(ethylsulfonyl)-6-(trifluoromethyl)imidazo[1,2-a]pyridin-2-yl]-6-(trifluoromethyl)imidazo[1,2-a]pyrazine] | ≥ 90 | ≥ 90 | ≥ 90 | – | – | –
CCS(=O)(=O)c1c(-c2nc3cc(C(F)(F)F)cnc3n2C)nc2sc(C(F)(F)F)cn12 [2-1-001a, 5-(ethylsulfonyl)-6-[3-methyl-6-(trifluoromethyl)-3H-imidazo[4,5-b]pyridin-2-yl]-2-(trifluoromethyl)imidazo[2,1-b]thiazole] | ≥ 90 | ≥ 90 | ≥ 90 | ≥ 50 | ≥ 90 | –
CCS(=O)(=O)c1c(-c2cn3cnc(C(F)(F)C(F)(F)F)cc3n2)nc2ccc(C(F)(F)F)cn12 [1-3-008a, 2-[3-(ethylsulfonyl)-6-(trifluoromethyl)imidazo[1,2-a]pyridin-2-yl]-7-(perfluoroethyl)imidazo[1,2-c]pyrimidine] | – | ≥ 90 | ≥ 90 | ≥ 50 | – | –
CCSc1c(-n2cc3cnc(C(F)(F)F)cc3n2)nc2cc(C(F)(F)F)ccn12 [1-11-001b, 2-[3-(ethylthio)-7-(trifluoromethyl)imidazo[1,2-a]pyridin-2-yl]-6-(trifluoromethyl)-2H-pyrazolo[4,3-c]pyridine] | ≥ 90 | ≥ 90 | ≥ 90 | ≥ 50 | ≥ 90 | –
CCSc1c(-c2nc3cc(C(F)(F)F)ncc3n2C)nc2cc(C(F)(F)F)ccn12 [1-8-005b, 2-[3-(ethylthio)-7-(trifluoromethyl)imidazo[1,2-a]pyridin-2-yl]-3-methyl-6-(trifluoromethyl)-3H-imidazo[4,5-c]pyridine] | – | ≥ 90 | – | – | – | –
CCS(=O)(=O)c1c(-c2nc3cc(S(=O)(=O)C(F)(F)F)ccc3o2)nc2ccc(C(F)(F)F)cn12 [1-2-001a, 2-[3-(ethylsulfonyl)-6-(trifluoromethyl)imidazo[1,2-a]pyridin-2-yl]-5-[(trifluoromethyl)sulfonyl]benz[d]oxazole] | ≥ 90 | ≥ 90 | ≥ 90 | ≥ 50 | ≥ 90 | –
CCSc1c(-c2nc3cc(C(F)(F)F)cnc3n2C)nc2sc(C(F)(F)F)cn12 [2-1-001b, 5-(ethylthio)-6-[3-methyl-6-(trifluoromethyl)-3H-imidazo[4,5-b]pyridin-2-yl]-2-(trifluoromethyl)imidazo[2,1-b]thiazole] | – | ≥ 90 | ≥ 90 | – | – | –
CCS(=O)(=O)c1c(-c2cn3cc(C(F)(F)F)sc3n2)nc2ccc(C(F)(F)F)cn12 [1-12-001a, 6-[3-(ethylsulfonyl)-6-(trifluoromethyl)imidazo[1,2-a]pyridin-2-yl]-2-(trifluoromethyl)imidazo[2,1-b]thiazole] | ≥ 90 | ≥ 90 | ≥ 90 | ≥ 50 | – | –
CCSc1c(-c2nc3cnc(C(F)(F)F)cc3n2C)nc2cc(Cl)ccn12 [1-9-003b, 2-[7-chloro-3-(ethylthio)imidazo[1,2-a]pyridin-2-yl]-1-methyl-6-(trifluoromethyl)-1H-imidazo[4,5-c]pyridine] | – | – | ≥ 90 | ≥ 50 | – | –
CCS(=O)(=O)c1c(-c2nc3cc(C(F)(F)F)cnc3s2)nc2cc(C(F)(F)F)ccn12 [1-13-001a, 2-[3-(ethylsulfonyl)-7-(trifluoromethyl)imidazo[1,2-a]pyridin-2-yl]-6-(trifluoromethyl)thiazolo[5,4-b]pyridine] | – | ≥ 90 | ≥ 90 | – | – | –
CCS(=O)(=O)c1c(-c2nc3cc(SC(F)(F)F)cnc3n2C)nc2cc(C(F)(F)F)ccn12 [1-1-027a, 2-[3-(ethylsulfonyl)-7-(trifluoromethyl)imidazo[1,2-a]pyridin-2-yl]-3-methyl-6-((trifluoromethyl)thio)-3H-imidazo[4,5-b]pyridine] | ≥ 90 | ≥ 90 | ≥ 90 | ≥ 50 | – | –
CCSc1c(-c2nc3cc(C(F)(F)F)cnc3n2C)nc2cc(C(F)(F)F)c(Br)cn12 [1-1-023b, 2-[6-bromo-3-(ethylthio)-7-(trifluoromethyl)imidazo[1,2-a]pyridin-2-yl]-3-methyl-6-(trifluoromethyl)-3H-imidazo[4,5-b]pyridine] | – | ≥ 90 | ≥ 90 | ≥ 50 | – | –
CCSc1c(-c2nc3ccc(C(F)(F)F)nc3n2C)nc2cc(C(F)(F)F)ccn12 [1-1-030b, 2-[3-(ethylthio)-7-(trifluoromethyl)imidazo[1,2-a]pyridin-2-yl]-3-methyl-5-(trifluoromethyl)-3H-imidazo[4,5-b]pyridine] | – | ≥ 90 | ≥ 90 | – | – | –
CCSc1c(-c2nc3cc(C(F)(F)F)nc(C)c3n2C)nc2ccc(C(F)(F)F)cn12 [1-8-003b, 2-[3-(ethylthio)-6-(trifluoromethyl)imidazo[1,2-a]pyridin-2-yl]-3,4-dimethyl-6-(trifluoromethyl)-3H-imidazo[4,5-c]pyridine] | – | ≥ 90 | ≥ 90 | – | – | –
CCSc1c(-c2nc3cc(C(F)(F)F)cnc3n2C)nc2c(C(F)(F)F)cc(I)cn12 [1-1-066b, 2-[3-(ethylthio)-6-iodo-8-(trifluoromethyl)imidazo[1,2-a]pyridin-2-yl]-3-methyl-6-(trifluoromethyl)-3H-imidazo[4,5-b]pyridine] | – | – | – | ≥ 50 | – | –
CCS(=O)(=O)c1c(-c2nc3cc([S+]([O-])C(F)(F)F)ccc3o2)nc2ccc(C(F)(F)F)cn12 (stereo not shown) [1-2-002a, 2-[3-(ethylsulfonyl)-6-(trifluoromethyl)imidazo[1,2-a]pyridin-2-yl]-5-[(trifluoromethyl)sulfinyl]benz[d]oxazole] | ≥ 90 | ≥ 90 | ≥ 90 | – | ≥ 90 | ≥ 90
CCSc1c(-n2cc3ncc(C(F)(F)F)cc3n2)nc2cc(C(F)(F)F)ccn12 [1-10-002b, 2-[3-(ethylthio)-7-(trifluoromethyl)imidazo[1,2-a]pyridin-2-yl]-6-(trifluoromethyl)-2H-pyrazolo[4,3-b]pyridine] | ≥ 90 | ≥ 90 | ≥ 90 | ≥ 50 | – | –
CCS(=O)(=O)c1c(-c2nc3cc(C(F)(F)F)cnc3n2C)nc2cc(C(F)(F)F)c(Br)cn12 [1-1-023a, 2-[6-bromo-3-(ethylsulfonyl)-7-(trifluoromethyl)imidazo[1,2-a]pyridin-2-yl]-3-methyl-6-(trifluoromethyl)-3H-imidazo[4,5-b]pyridine] | ≥ 90 | ≥ 90 | ≥ 90 | ≥ 50 | ≥ 90 | –
CCS(=O)(=O)c1c(-c2nc3cc(C(F)(F)C(F)(F)F)ncn3c2Br)nc2ccc(C(F)(F)F)cn12 [1-3-010a, 3-bromo-2-[3-(ethylsulfonyl)-6-(trifluoromethyl)imidazo[1,2-a]pyridin-2-yl]-7-(perfluoroethyl)imidazo[1,2-c]pyrimidine] | ≥ 90 | ≥ 90 | – | ≥ 50 | – | –
CCS(=O)(=O)c1c(-c2cn3ccc(C(F)(F)F)cc3n2)nc2ccc(C(F)(F)F)cn12 [1-5-002a, 3-(ethylsulfonyl)-6,7′-bis(trifluoromethyl)-2,2′-biimidazo[1,2-a]pyridine] | ≥ 90 | ≥ 90 | ≥ 90 | ≥ 50 | ≥ 90 | –
CCS(=O)(=O)c1c(-c2nc3cc(C(F)(F)F)cnc3n2C)nc2ncc(C(F)(F)F)cn12 [1-1-054a, 2-[3-(ethylsulfonyl)-6-(trifluoromethyl)imidazo[1,2-a]pyrimidin-2-yl]-3-methyl-6-(trifluoromethyl)-3H-imidazo[4,5-b]pyridine] | – | – | ≥ 90 | – | – | –
